Results taken from ChEMBL document CHEMBL4052612, “Isolation and Identification of the Novel Tubulin Polymerization Inhibitor Bifidenone” (J Nat Prod, 2017).
Activity calls are given as the source filed them. The calls are words filed in the database; no cut-off is given here.

Key:
[1] = system: A-375; assay: Antiproliferative activity against human A375 cells after 72 hrs by CellTiter96 AQueous nonradioactive cell proliferation assay; format: functional, cell-based; conditions: A-375, 72 h
[2] = system: SF-295; assay: Antiproliferative activity against human SF295 cells after 72 hrs by CellTiter96 AQueous nonradioactive cell proliferation assay; format: functional, cell-based; conditions: SF-295, 72 h
[3] = system: UACC-62; assay: Antiproliferative activity against human UACC62 cells after 72 hrs by CellTiter96 AQueous nonradioactive cell proliferation assay; format: functional, cell-based; conditions: UACC-62, 72 h
[4] = system: Malme-3M; assay: Antiproliferative activity against human MALME-3M cells after 48 hrs by SRB assay; format: functional, cell-based
[5] = system: RAW264.7; assay: Antiproliferative activity against mouse RAW264.7 cells after 18 hrs by CellTiter96 AQueous nonradioactive cell proliferation assay; format: cell-based; conditions: RAW264.7, 18 h
[6] = system: HCC 2998; assay: Antiproliferative activity against human HCC2998 cells after 48 hrs by SRB assay; format: functional, cell-based; conditions: HCC 2998, 48 h
[7] = organism: Sus scrofa; assay: Inhibition of pig brain tubulin polymerization measured every 1 min for 60 mins
[8] = system: M14; assay: Antiproliferative activity against human M14 cells after 72 hrs by CellTiter96 AQueous nonradioactive cell proliferation assay; format: functional, cell-based; conditions: M14, 72 h
[9] = organism: Sus scrofa; assay: Displacement of vincristine from vinca alkaloid binding site of pig brain tubulin up to 100 uM by LC-MS analysis
[10] = system: NCI-H460; assay: Cell cycle arrest in human NCI-H460 cells assessed as accumulation at G2/M phase at 1.5 uM measured after 6 to 24 hrs in the presence of RNase A by propidium iodide staining-based flow cytometry analysis; format: functional
[11] = system: NCI/ADR-RES; assay: Antiproliferative activity against human NCI-ADR-RES cells after 48 hrs by SRB assay; format: functional, cell-based
[12] = system: NCI-H460; assay: Antiproliferative activity against human NCI-H460 cells after 72 hrs by CellTiter96 AQueous nonradioactive cell proliferation assay; format: functional, cell-based; conditions: NCI-H460, 72 h
[13] = system: ACHN; assay: Antiproliferative activity against human ACHN cells after 72 hrs by CellTiter96 AQueous nonradioactive cell proliferation assay; format: functional, cell-based
[14] = system: MDA-MB-435; assay: Antiproliferative activity against human MDA-MB-435 cells after SRB assay; format: functional, cell-based
[15] = system: SK-MEL-2; assay: Antiproliferative activity against human SK-MEL-2 cells after 72 hrs by CellTiter96 AQueous nonradioactive cell proliferation assay; format: functional, cell-based; conditions: SK-MEL-2, 72 h
[16] = Antiproliferative activity against human NCI60 cells after 48 hrs by SRB assay; format: functional, cell-based; conditions: NCI60, 48 h
[17] = system: NCI-H460; assay: Induction of apoptosis in human NCI-H460 cells upto 100 uM assessed as increase in caspase3/7 activity after 24 hrs by Caspase-Glo 3/7 assay relative to control; format: functional
[18] = organism: Sus scrofa; assay: Displacement of colchicine from colchicine-binding site of pig brain tubulin up to 100 uM by LC-MS analysis
[19] = system: NCI-H460; assay: Induction of necrosis in human NCI-H460 cells upto 100 uM assessed as increase in LDH levels after 24 hrs by CytoTox 96 nonradioactive cytotoxicity assay; format: functional, cell-based
[20] = system: SR; assay: Antiproliferative activity against human SR cells after 48 hrs by SRB assay; format: functional, cell-based
[21] = system: PC-3; assay: Antiproliferative activity against human PC3 cells after 72 hrs by CellTiter96 AQueous nonradioactive cell proliferation assay; format: functional, cell-based; conditions: PC-3, 72 h

Row | Compound | IC50 [1] [nM] | IC50 [2] [nM] | IC50 [3] [nM] | IC50 [5] [nM] | IC50 [8] [nM] | IC50 [11] [nM] | IC50 [12] [nM] | IC50 [13] [nM] | IC50 [15] [nM] | IC50 [21] [nM] | further results
1 | C=CC[C@H]1C[C@]2([C@@H](C)Cc3ccc(OC)c(OC)c3)OCOC2=CC1=O | 75 | 250 | 44 | > 5000 | 64 | 170 | 260 | 360 | 95 | 490 | IC50 [4]: < 100 nM; IC50 [6]: 1410 nM; inhibition [7]: Dose-dependent effect; inhibition [9]: inactive; Activity [10]: Active; IC50 [14]: < 100 nM; IC50 [16]: 270 nM; fold change (FC) [17]: 2.5; inhibition [18]: Active; Activity [19]: Active; IC50 [20]: < 100 nM
2 | CC(=O)O[C@H]1C(=O)[C@@]2(C)[C@H]([C@H](OC(=O)c3ccccc3)[C@]3(O)C[C@H](OC(=O)[C@H](O)[C@@H](NC(=O)c4ccccc4)c4ccccc4)C(C)=C1C3(C)C)[C@]1(OC(C)=O)CO[C@@H]1C[C@@H]2O [PACLITAXEL] | 10 | 56 | 6 | > 5000 | 7 | > 10000 | 10 | 66 | 9 | 4 | 
